Laboratory results published in US12528814B2, “Bifunctional degraders of interleukin-1 receptor-associated kinases and therapeutic use thereof” (NURIX THERAPEUTICS, INC., priority 2020, dated 2026).
Read-outs that look alike come from different tables or passages of the source.

Tests used:
IRAK4 [1] = target: T1, IRAK4 (Homo sapiens (Human), UniProt Q9NWZ3); experiment: IRAK4 Biochemical HTRF Kinase Assay; settings: read-out: IRAK4 HTRF biochemical: IC50
Experimental: IRAK4 Biochemical HTRF Kinase Assay
The binding capacities of certain bifunctional compounds of Formula (I) were determined using the CisBio HTRF KinEASE STK S1 Kit (#62ST1PEB, contains 5× Kinase buffer, 1× Detection Buffer, anti-phospho-serine/threonine-cryptate, Streptavidin-XL665, and STK-S1), which measures the phosphorylation of a biotinylated peptide substrate by IRAK4, according to the manufacturer's protocol. […] 2 μl of a reaction solution containing 5 μM STK-S1, 10 mM ATP, and 10 mM MgCl2 were added to each well to a final volume of 10 μl. Assay controls include wells containing kinase with no compound (DMSO only) and wells containing no kinase and no compound (DMSO only). The reactions were allowed to proceed at ambient temperature for 90 minutes. […] The plates were incubated for 60 minutes at ambient temperature and then read on an Envision Multilabel Reader (PerkinElmer). […] For IC50 determination, the compounds were tested at sixteen concentrations in duplicate and curve-fitting was performed by non-linear regression analysis using GraphPad Priam.
Target sequence in this assay (Q9NWZ3 whole entry, species assumed): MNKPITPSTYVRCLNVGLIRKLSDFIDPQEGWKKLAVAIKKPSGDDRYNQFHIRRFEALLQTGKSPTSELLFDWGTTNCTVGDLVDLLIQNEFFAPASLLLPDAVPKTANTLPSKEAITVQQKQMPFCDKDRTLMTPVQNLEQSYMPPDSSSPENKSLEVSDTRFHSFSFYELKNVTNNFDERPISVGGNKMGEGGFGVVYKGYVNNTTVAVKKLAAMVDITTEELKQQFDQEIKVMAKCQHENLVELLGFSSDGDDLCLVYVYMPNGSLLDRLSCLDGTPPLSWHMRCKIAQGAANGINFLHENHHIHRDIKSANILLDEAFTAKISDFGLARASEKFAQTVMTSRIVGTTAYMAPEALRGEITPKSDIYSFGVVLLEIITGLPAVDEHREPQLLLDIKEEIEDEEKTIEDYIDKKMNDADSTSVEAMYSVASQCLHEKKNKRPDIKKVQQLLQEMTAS

IRAK4 [2] = target: T1, IRAK4; experiment: IRAK4 Degradation HiBiT Assay; settings: HiBiT-tagged Jurkat cells, 4 hrs; for Dmax: Jurkat; for DC50: read-out: Cellular IRAK4 HiBiT: DC50
Target sequence in this assay (Q9NWZ3 whole entry): as the sequence (Q9NWZ3 whole entry, species assumed) above

[3] = read-out: Cellular IRAK4 HiBiT: Dmax, Table 5, multiple runs
[4] = read-out: Cellular IRAK4 HiBiT: Dmax, Table 4

Row | SMILES | IC50 (IRAK4 [1]; Table 5, multiple runs) [nM] | Dmax (IRAK4 [2]; [3]) [%] | DC50 (IRAK4 [2]; Table 5, multiple runs) [nM] | IC50 (IRAK4 [1]; Table 4) [nM] | Dmax (IRAK4 [2]; [4]) [%] | DC50 (IRAK4 [2]; Table 4) [nM]
1 | CNc1cc(-c2ccc3cc(C#N)cnn23)ncc1-c1nnc(C23CCC(NC(=O)CCC(=O)N[C@H](C(=O)N4C[C@H](O)C[C@H]4C(=O)N[C@@H](C)c4ccc(-c5scnc5C)cc4)C(C)(C)C)(CC2)CC3)s1 [Example 128, N1-(4-(5-(6-(3-cyanopyrrolo[1,2-b]pyridazin-7-yl)-4-(methylamino)pyridin-3-yl)-1,3,4-thiadiazol-2-yl)bicyclo[2.2.2]octan-1-yl)-N4—((S)-1-((2S,4R)-4-hydroxy-2-(((S)-1-(4-(4-methylthiazol-5-yl)phenyl)ethyl)carbamoyl)pyrrolidin-1-yl)-3,3-dimethyl-1-oxobutan-2-yl)succinamide] | 1.7 | 139 | 432 | – | – | –
2 | CNc1cc(-c2ccc3cc(C#N)cnn23)ncc1-c1nnc([C@H]2CC[C@H](NC(=O)CCC(=O)N[C@H](C(=O)N3C[C@H](O)C[C@H]3C(=O)N[C@@H](C)c3ccc(Br)cc3)C(C)(C)C)CC2)s1 [Example 172, N1—((S)-1-((2S,4R)-2-(((S)-1-(4-bromophenyl)ethyl)carbamoyl)-4-hydroxypyrrolidin-1-yl)-3,3-dimethyl-1-oxobutan-2-yl)-N4-((1r,4S)-4-(5-(6-(3-cyanopyrrolo[1,2-b]pyridazin-7-yl)-4-(methylamino)pyridin-3-yl)-1,3,4-thiadiazol-2-yl)cyclohexyl)succinamide] | 1.5 | 28 | 2520 | – | – | –
3 | CNc1cc(-c2ccc3cc(C#N)cnn23)ncc1-c1nnc([C@H]2CC[C@H](NC(=O)CCOCCC(=O)N[C@H](C(=O)N3C[C@H](O)C[C@H]3C(=O)N[C@@H](C)c3ccc(-c4scnc4C)cc3)C(C)(C)C)CC2)s1 [Example 61, (2S,4R)-1-((S)-2-(3-(3-(((1r,4S)-4-(5-(6-(3-cyanopyrrolo[1,2-b]pyridazin-7-yl)-4-(methylamino)pyridin-3-yl)-1,3,4-thiadiazol-2-yl)cyclohexyl)amino)-3-oxopropoxy)propanamido)-3,3-dimethylbutanoyl)-4-hydroxy-N—((S)-1-(4-(4-methylthiazol-5-yl)phenyl)ethyl)pyrrolidine-2-carboxamide] | 4 | 121 | 399 | 3.98 | 117 | 591
4 | Cc1ncsc1-c1ccc(CNC(=O)[C@@H]2C[C@@H](O)CN2C(=O)[C@@H](NC(=O)C2(F)CC2)C(C)(C)C)c(OCC(=O)N2CCC(C(=O)N3CCN(c4nnc(-c5cnc(-c6ccc7cc(C#N)cnn67)cc5NC(C)C)s4)CC3)CC2)c1 [Example 80, (2S,4R)—N-(2-(2-(4-(4-(5-(6-(3-cyanopyrrolo[1,2-b]pyridazin-7-yl)-4-(isopropylamino)pyridin-3-yl)-1,3,4-thiadiazol-2-yl)piperazine-1-carbonyl)piperidin-1-yl)-2-oxoethoxy)-4-(4-methylthiazol-5-yl)benzyl)-1-((S)-2-(1-fluorocyclopropane-1-carboxamido)-3,3-dimethylbutanoyl)-4-hydroxypyrrolidine-2-carboxamide] | 3.7 | 115 | 313 | – | – | –
5 | Cc1ncsc1-c1ccc(CNC(=O)[C@@H]2C[C@@H](O)CN2C(=O)[C@@H](NC(=O)C2(F)CC2)C(C)(C)C)c(OCC(=O)N2CCC(CN3CCN(c4nnc(-c5cnc(-c6ccc7cc(C#N)cnn67)cc5NC(C)C)s4)CC3)CC2)c1 [Example 84, (2S,4R)—N-(2-(2-(4-((4-(5-(6-(3-cyanopyrrolo[1,2-b]pyridazin-7-yl)-4-(isopropylamino)pyridin-3-yl)-1,3,4-thiadiazol-2-yl)piperazin-1-yl)methyl)piperidin-1-yl)-2-oxoethoxy)-4-(4-methylthiazol-5-yl)benzyl)-1-((S)-2-(1-fluorocyclopropane-1-carboxamido)-3,3-dimethylbutanoyl)-4-hydroxypyrrolidine-2-carboxamide] | 5.5 | 115 | 247 | – | – | –
6 | Cc1ncsc1-c1ccc([C@H](C)NC(=O)[C@@H]2C[C@@H](O)CN2C(=O)[C@@H](NC(=O)CCC(=O)N2CCN(c3nnc(-c4cnc(-c5ccc6cc(C#N)cnn56)cc4NC(C)C)s3)CC2)C(C)(C)C)cc1 [Example 40, (2S,4R)-1-((S)-2-(4-(4-(5-(6-(3-cyanopyrrolo[1,2-b]pyridazin-7-yl)-4-(isopropylamino)pyridin-3-yl)-1,3,4-thiadiazol-2-yl)piperazin-1-yl)-4-oxobutanamido)-3,3-dimethylbutanoyl)-4-hydroxy-N—((S)-1-(4-(4-methylthiazol-5-yl)phenyl)ethyl)pyrrolidine-2-carboxamide] | 3.6 | 53 | 419 | 3.6 | 53 | 420
7 | CNc1cc(-c2ccc3cc(C#N)cnn23)ncc1-c1nnc([C@H]2CC[C@H](NC(=O)CCCCC(=O)N[C@H](C(=O)N3C[C@H](O)C[C@H]3C(=O)N[C@@H](C)c3ccc(-c4scnc4C)cc3)C(C)(C)C)CC2)s1 [Example 57, N1-((1r,4S)-4-(5-(6-(3-cyanopyrrolo[1,2-b]pyridazin-7-yl)-4-(methylamino)pyridin-3-yl)-1,3,4-thiadiazol-2-yl)cyclohexyl)-N6—((S)-1-((2S,4R)-4-hydroxy-2-(((S)-1-(4-(4-methylthiazol-5-yl)phenyl)ethyl)carbamoyl)pyrrolidin-1-yl)-3,3-dimethyl-1-oxobutan-2-yl)adipamide] | 2.9 | 114 | 81.4 | 2.9 | 107 | 89.6
8 | CNc1cc(-c2ccc3cc(C#N)cnn23)ncc1-c1nnc([C@H]2CC[C@H](NC(=O)CN3CCN(c4ccc5c(c4)C(=O)N(C4CCC(=O)N(C)C4=O)C5=O)CC3)CC2)s1 (some centres unmarked) [Example 148, N-((1r,4r)-4-(5-(6-(3-cyanopyrrolo[1,2-b]pyridazin-7-yl)-4-(methylamino)pyridin-3-yl)-1,3,4-thiadiazol-2-yl)cyclohexyl)-2-(4-(2-(1-methyl-2,6-dioxopiperidin-3-yl)-1,3-dioxoisoindolin-5-yl)piperazin-1-yl)acetamide] | 1.4 | – | > 9980 | – | – | –
9 | CNc1cc(-c2ccc3cc(C#N)cnn23)ncc1-c1nnc(N2CCN(C(=O)COc3cc(-c4scnc4C)ccc3CNC(=O)[C@@H]3C[C@@H](O)CN3C(=O)[C@@H](NC(=O)C3(F)CC3)C(C)(C)C)CC2)s1 [Example 96, (2S,4R)—N-(2-(2-(4-(5-(6-(3-cyanopyrrolo[1,2-b]pyridazin-7-yl)-4-(methylamino)pyridin-3-yl)-1,3,4-thiadiazol-2-yl)piperazin-1-yl)-2-oxoethoxy)-4-(4-methylthiazol-5-yl)benzyl)-1-((S)-2-(1-fluorocyclopropane-1-carboxamido)-3,3-dimethylbutanoyl)-4-hydroxypyrrolidine-2-carboxamide] | 1.3 | 90 | 905 | – | – | –
10 | CNc1cc(-c2ccc3cc(C#N)cnn23)ncc1-c1nnc(C23CCC(NC(=O)C[C@H](NC(=O)[C@@H]4C[C@@H](O)CN4C(=O)[C@@H](NC(=O)C4(F)CC4)C(C)(C)C)c4ccc(-c5scnc5C)cc4)(CC2)CC3)s1 [Example 140, (2S,4R)—N—((S)-3-((4-(5-(6-(3-cyanopyrrolo[1,2-b]pyridazin-7-yl)-4-(methylamino)pyridin-3-yl)-1,3,4-thiadiazol-2-yl)bicyclo[2.2.2]octan-1-yl)amino)-1-(4-(4-methylthiazol-5-yl)phenyl)-3-oxopropyl)-1-((S)-2-(1-fluorocyclopropane-1-carboxamido)-3,3-dimethylbutanoyl)-4-hydroxypyrrolidine-2-carboxamide] | 2.3 | 111 | 88.9 | – | – | –
11 | CNc1cc(-c2ccc3cc(C#N)cnn23)ncc1-c1nnc(C23CCC(NC(=O)CCOCCNc4ccc5c(c4)C(=O)N(C4CCC(=O)NC4=O)C5=O)(CC2)CC3)s1 (centres unmarked) [Example 102, N-(4-(5-(6-(3-cyanopyrrolo[1,2-b]pyridazin-7-yl)-4-(methylamino)pyridin-3-yl)-1,3,4-thiadiazol-2-yl)bicyclo[2.2.2]octan-1-yl)-3-(2-((2-(2,6-dioxopiperidin-3-yl)-1,3-dioxoisoindolin-5-yl)amino)ethoxy)propanamide] | 0.8 | 91 | 25.3 | – | – | –
12 | CNc1cc(-c2ccc3cc(C#N)cnn23)ncc1-c1nnc([C@H]2CC[C@H](NC(=O)CCCCCCCNc3ccc4c(c3)C(=O)N(C3CCC(=O)NC3=O)C4=O)CC2)s1 (some centres unmarked) [Example 67, N-((1r,4r)-4-(5-(6-(3-cyanopyrrolo[1,2-b]pyridazin-7-yl)-4-(methylamino)pyridin-3-yl)-1,3,4-thiadiazol-2-yl)cyclohexyl)-8-((2-(2,6-dioxopiperidin-3-yl)-1,3-dioxoisoindolin-5-yl)amino)octanamide] | 1.8 | 86 | 45.7 | 1.61 | 53 | 10.4
